According to patent US6645972B2, “Methods of treating leukemia” (Shire BioChem Inc., priority 2001, dated 2003):
Structures can show the parent of a compound that is named as a salt.

Columns and labels:
KBM-5 cells = test: in vitro growth inhibition (MTS) assay, KBM-5; assay type: cell-based, human; details: 3 day MTS assay, 72 h exposure, read-out: IC50 (drug concentration which causes 50% growth inhibition)
Method: (§1) β-L Oddc was evaluated using an in vitro growth inhibition (MTS) assay. The description of the cell lines used and the details of the MTS assay are described below.
(§2) Cell lines: Two human CML, Ph+, p210 Bcr-Abl expressing cell lines were used, namely, KBM-5 and KBM-7. KBM-5 was derived from a patient in the blastic phase of CML and was evaluated to be absent of normal c-ABL. KBM-7 was identified previously to be a human near-haploid cell line. These two cell lines were further described in the references below, now incorporated by reference:
(§3) The cells were cultured in Iscove's modified Dulbecco's medium supplemented with 10% fetal calf serum (Invitrogen Corp., Carlsbad, Calif.) at 37° C. in atmosphere of 5% CO2 in air.
(§4) Growth inhibition (MTS) assay: The in vitro growth inhibition effect of β-L Oddc on leukemic cells was determined by measuring MTS (CellTiter 96®Aqueous One Solution Reagent, Promega Corporation, WI) dye absorbance by living cells. Briefly, cells were seeded in triplicate in 96-well microtiter plates (Falcon, USA) at a concentration of 4×10^5 cells /ml. After exposure to the β-L Oddc for 72 h, 20 μl of MTS solution were added to each well, the plates were incubated for additional 4 h at 37° C., and absorbance at 490 nm was measured.

[1] = system: KBM5-STI^R cells (STI-571-resistant KBM5); test: in vitro growth inhibition (MTS) assay, KBM5-STI^R; assay type: cell-based, human; details: 3 day MTS assay, 72 h exposure, read-out: IC50 (drug concentration which causes 50% growth inhibition)
KBM-7 cells = test: in vitro growth inhibition (MTS) assay, KBM-7; assay type: cell-based, human; details: 3 day MTS assay, 72 h exposure, read-out: IC50 (drug concentration which causes 50% growth inhibition)
Method: as §1, §2, §3, §4

[2] = system: KBM7-STI^R cells (STI-571-resistant KBM7); test: in vitro growth inhibition (MTS) assay, KBM7-STI^R; assay type: cell-based, human; details: 3 day MTS assay, 72 h exposure, read-out: IC50 (drug concentration which causes 50% growth inhibition)
Method: as §1, §2, §4

[3] = system: chronic myeloid leukemia in blastic phase (CML-BP); test: preliminary multicenter study in patients with CML-BP; assay type: in vivo, human; details: 8mg/m^2/day daily for 5 days, twenty one patients evaluable, 40 cycles, data not verified
Method: A preliminary study was conducted to investigate the activity of β-L Oddc in patients with chronic myeloid leukemia in blastic phase (CML-BP). The multicenter study was conducted using β-L Oddc 8mg/m^2/day daily for 5 days for patients with CML-BP who had received no prior chemotherapy for CML-BP. Patients who had received Gleevec therapy as sole prior therapy for CML-BP were also eligible. Twenty-six patients, 17 male, 26 performance score less than or equal to 2, median age 54 years (range 31-84) had been entered in the study to date. 13 (50%) patients received β-L Oddc as first therapy for CML-BP, 13 (50%) had failed prior Gleevec therapy for CML-BP. Response definitions are as follows: Complete hematologic response (CHR) requires normalization of peripheral counts and differentials with less than or equal to 5% marrow blasts for at least 4 weeks. Hematologic improvement (HI) is as with CHR but with persistence of thrombocytopenia less than 100×10^9/L and few immature peripheral cells. A partial hematologic response (PHR) is as per CHR, but allows persistence of, though less than or equal to 50% reduction of, palpable splenomegaly and thrombocytosis (platelets>450×10^9/L) or the presence of few immature peripheral cells. […]

KBM5 cells = test: response of KBM5 cells to STI-571 exposure; assay type: cell-based, human
Method: as §3

KBM7 cells = test: response of KBM7 cells to STI-571 exposure; assay type: cell-based, human
Method: as §3

Compound	IC50 (KBM-5 cells)	IC50 [1]	IC50 (KBM-7 cells)	IC50 [2]	patients in whom some responses were observed [3]	response to STI-571 exposure (KBM5 cells)	response to STI-571 exposure (KBM7 cells)
Nc1ccn([C@@H]2CO[C@H](CO)O2)c(=O)n1 [β-L Oddc, (−)-β-L-Dioxolane-Cytidine]	500 to 1000 nM	500 to 1000 nM	500 to 1000 nM	500 to 1000 nM	4 patients	–	–
Cc1ccc(NC(=O)c2ccc(CN3CCN(C)CC3)cc2)cc1Nc1nccc(-c2cccnc2)n1 [STI-571, imatinib mesylate]	–	–	–	–	–	G0/G1 cell cycle arrest	apoptosis
